From PubChem BioAssay AID844 (SRMLSC, 2007)
Activity calls are given as the source filed them. How the calls were made is not given here.

Test system: MRP1 cells, doxorubicin viability shift, 10 uM compound
Assay: doxorubicin EC50 increase in MRP-1 cells, dose response, cell-based, doxorubicin EC50 shift (AID 844)
Conditions: for EC50: measured here: doxorubicin EC50 with compound

Row | Compound | fold increase in Dox EC50 | EC50
1 | C/C(=N\NC(=O)CCc1c[nH]c2ccccc12)c1cccc([N+](=O)[O-])c1 | 0.8 (inactive) | 4.33 µM
2 | Cc1ccc(C)c(N2CCN(C(=O)Cc3ccc(-n4c(=O)[nH]c5ccsc5c4=O)cc3)CC2)c1 | 0.58 (inactive) | 3.12 µM
3 | CCCN1C(=O)/C(=N\OCC(=O)Nc2ccc(C(C)C)cc2)c2ccccc21 | 0.74 (inactive) | 3.99 µM
4 | Fc1cccc(-c2cc3nc(-c4ccccc4)cc(N4CCC5(CC4)OCCO5)n3n2)c1 | 0.56 (inactive) | 3.04 µM
5 | O=C(CC(c1ccccc1)c1ccccc1)Nc1ncn[nH]1 | 0.75 (inactive) | 4.03 µM
6 | Cc1cccc(C)c1N=Cc1c(O)n(-c2nccs2)c(=O)c2ccccc12 | 0.6 (inactive) | 3.22 µM
7 | COc1cc(C2NC(=O)NC(C)=C2C(=O)OCc2ccc(C)cc2)cc(OC)c1O (stereo unspecified) | 0.68 (inactive) | 3.65 µM
8 | Cc1ccc(-c2nnn(CC(=O)N(c3ccccc3F)C(C(=O)NCC3CCCO3)c3c[nH]c4ccccc34)n2)cc1 (stereo unspecified) | 0.5 (inactive) | 2.67 µM
9 | COc1cccc(/C=N/NC(=O)C(=O)NCc2ccco2)c1O | 0.65 (inactive) | 3.54 µM
10 | COc1ccc(Nc2nnc(Cc3ccc(Cl)cc3)c(=O)[nH]2)c(OC)c1 | 0.91 (inactive) | 4.93 µM
11 | COc1cccc(/C=N/N2C(=O)CSC2=S)c1O | 1.31 (inactive) | 7.08 µM
12 | O=C(CC(=O)N/N=C/c1ccccc1O)NCc1cccnc1 | 0.39 (inactive) | 2.08 µM
13 | CCC(=O)N1CCN=C1SCc1ccccc1 | 0.74 (inactive) | 3.98 µM
14 | FC(F)(F)c1cccc(CNc2ncccc2-c2nc3cc(Cl)ccc3o2)c1 | 0.93 (inactive) | 5.03 µM
15 | N=C(N)SCc1cccc2ccccc12 | 0.35 (inactive) | 1.9 µM
16 | O=C1c2ccsc2SCCN1Cc1c(Cl)cccc1Cl | 1.19 (inactive) | 6.43 µM
17 | CCOC(=O)c1csc(NC(=O)c2ccccc2)n1 | 0.86 (inactive) | 4.65 µM
18 | N#CC1=C(N)SC(N)=C(C#N)C1c1cccc(O)c1 | 1.07 (inactive) | 5.78 µM
19 | COc1ccc(NC(=O)CCCC2CCCCC2)cc1S(=O)(=O)N1CCCCC1 | 1.68 | 9.05 µM
20 | S=C(N/N=C/c1ccc(Cl)cc1)N1CCOCC1 | 1.22 (inactive) | 6.57 µM
21 | Cc1onc(-c2c(F)cccc2Cl)c1C(=O)Nc1sc2c(c1C#N)CCC(C(C)(C)C)C2 (stereo unspecified) | 0.48 (inactive) | 2.61 µM
22 | Cc1cc(C)nc(NN2C(=O)/C(=C/c3ccc(O)cc3)SC2=S)n1 | 1.39 (inactive) | 7.51 µM
23 | COC(=O)c1ccc(NC(=O)C(=O)N2CCN(C(=S)Nc3cccc(OC)c3)CC2)cc1 | 1.28 (inactive) | 6.93 µM
24 | CCc1nccn1C(=O)c1cnn2c(C(F)F)cc(-c3ccc(C)cc3)nc12 | 0.1 (inactive) | 0.523 µM
25 | N#C/C(=N\Nc1ccccc1)C(=N)N1CCOCC1 | 1.15 (inactive) | 6.23 µM
26 | Cc1c(N2C(=O)/C(=C/c3ccccc3)SC2=S)c(=O)n(-c2ccccc2)n1C | 0.58 (inactive) | 3.15 µM
27 | Cc1ccccc1Cn1nc(C)c(NC(=O)c2noc3c2CCc2ccccc2-3)c1C | 1.96 | 10.6 µM

Row | Compound | fold increase in Dox EC50 | EC50
28 | COc1cccc(C2CC(c3ccc(Cl)cc3Cl)n3nc(N)nc3N2)c1 (stereo unspecified) | 1.03 (inactive) | 5.56 µM
29 | Cc1cc(C(=O)N/N=C/c2cc([N+](=O)[O-])cc(C)c2O)n[nH]1 | 0.53 (inactive) | 2.87 µM
30 | CC1(C)O[C@@H]2C[C@H]3[C@@H]4CCC5=CC(=O)C=C[C@]5(C)[C@@]4(F)[C@@H](O)C[C@]3(C)[C@]2(C(=O)CO)O1 | 0.62 (inactive) | 3.33 µM
31 | O=C(Cn1c(=O)oc2cc(S(=O)(=O)N3CCCC3)ccc21)NCc1ccccn1 | 1.15 (inactive) | 6.19 µM
32 | Cc1ccc(Cl)cc1N1CCN(C(=O)c2cc3c(=O)n(C)c4ccccc4c3n2C)CC1 | 0.19 (inactive) | 1 µM
33 | CN(Cc1ccccc1)c1oc(COc2ccccc2F)nc1C#N | 0.66 (inactive) | 3.56 µM
34 | Cc1cccc(N2CCN(C(=O)c3cc4c(=O)n(C)c5ccccc5c4n3C)CC2)c1C | 0.08 (inactive) | 0.44 µM
35 | CC(/C=C1\SC(=O)N(CC(=O)Nc2ccc(O)cc2)C1=O)=C\c1ccccc1 | 0.68 (inactive) | 3.7 µM
36 | CCCCc1ccc(-c2nc(-c3ccncc3)no2)cc1 | 0.76 (inactive) | 4.09 µM
37 | O=C(NCC(F)(F)F)Nc1nnc(C(F)(F)F)s1 | 1.54 | 8.33 µM
38 | CC(/C=N\NC(=O)CN1CCN(S(=O)(=O)c2ccc(C)cc2)CC1)=C\c1ccccc1 | 1.26 (inactive) | 6.79 µM
39 | N#Cc1nc(COc2cccc(Cl)c2)oc1N1CCCC1 | 0.93 (inactive) | 5.04 µM
40 | CCC(Sc1nc2ccccc2s1)C(=O)Nc1nnc(C)s1 (stereo unspecified) | 1.04 (inactive) | 5.61 µM
41 | CCOC(=O)c1ccccc1NC(=O)C1COc2ccccc2O1 (stereo unspecified) | 0.42 (inactive) | 2.28 µM
42 | CCOC(=O)c1ccc(NC(=O)C2CCN(C(=O)c3ccc(OC)c(OC)c3)CC2)cc1 | 0.99 (inactive) | 5.35 µM
43 | COC(=O)N/N=C/c1ccc(-c2ccc(C)c(Cl)c2)o1 | 0.63 (inactive) | 3.41 µM
44 | O=C(NCc1ccc(F)cc1)C(=O)NCC1OCCN1C(=O)c1cccs1 (stereo unspecified) | 1.24 (inactive) | 6.68 µM
45 | CCCOc1ccc(C(=O)Nc2ccc(N3CCN(C(C)=O)CC3)cc2)cc1 | 1.06 (inactive) | 5.75 µM
46 | Cc1ccc(C(c2nnnn2CS(=O)(=O)c2ccc(C)cc2)N2CCN(c3ncccn3)CC2)cc1 (stereo unspecified) | 0.48 (inactive) | 2.58 µM
47 | N#C/C(=N\Nc1ccccc1F)C(=N)N1CCCCC1 | 0.79 (inactive) | 4.26 µM
48 | CC1=NN(c2ccc(C)cc2C)C(=O)C1C(c1ccccc1O)C1C(=O)N(c2ccc(C)cc2C)N=C1C (stereo unspecified) | 0.71 (inactive) | 3.81 µM
49 | COc1ccc(OCc2nc3ccc(S(=O)(=O)Nc4ccccc4Cl)cc3[nH]2)cc1 | 0.96 (inactive) | 5.16 µM
50 | O=C(CSc1ncn[nH]1)Nc1nnc(-c2ccccc2)s1 | 0.58 (inactive) | 3.12 µM
51 | O=C1/C(=C\c2ccco2)SC(=S)N1c1ccc(O)cc1 | 0.34 (inactive) | 1.84 µM
52 | O=C(O)CCN1C(=O)CC(N2C(=O)/C(=C/c3ccc(Cl)cc3)SC2=S)C1=O (stereo unspecified) | 1.3 (inactive) | 7.04 µM
53 | Cc1cc(C(=O)OCC(=O)Nc2ccc(F)c(F)c2)c(C)o1 | 1.76 | 9.53 µM
